Reference: patent US7375130B2, “Antidiabetic compounds comprising benzofuran and benzothiophene derivatives” (Merck Patent Gesellschaft mit beschrankter Haftung, priority 2003, dated 2008)

Experiments:
INS1 = experiment: Insulin secretion test (SEC INS1) according to Endocrinology, 1992 vol. 130 (1) pp. 167-178; type: cell-based; conditions: Rattus norvegicus, compounds tested at 10^-5 M, read-out: SEC INS1 (insulin-secreting activity)
Experimental: Insulin Secretion Test According to the Method Described in Endocrinology, 1992 vol. 130 (1) pp. 167-178
The compounds according to the invention were tested at 10^−5 M.
The insulin-secreting activities are collated in Table B.

[1] = test system: isolated islets of Langerhans; experiment: Insulin secretion in isolated rat islets of Langerhans in static incubation, as a function of the glucose concentration; type: cell-based; conditions: 90 minutes incubation, RIA, relative to glucose alone; for Insulin secretion stimulation factor, Product + G 2.8 mM: glucose 2.8 mM; for Insulin secretion stimulation factor, Product + G 8 mM: glucose 8 mM
Experimental: Study of the Activity on Isolated Rat Islets
Effect of the chemical compounds on insulin secretion as a function of the glucose concentration, in vitro, in isolated islets of Langerhans in static incubation (Table C):
The islets of Langerhans obtained by digestion of exocrine pancreatic tissue with collagenase, and then purified on Ficoll gradient, are incubated for 90 minutes in the presence of two concentrations of glucose, (2.8 mM or 8 mM), in the presence or absence of the chemical compound. The insulin secretion is assayed by RIA in the incubation medium.
The potential of the various chemical compounds to stimulate insulin secretion is estimated by calculating the stimulation factor*.
A compound stimulates the secretion of insulin if this factor is greater than or equal to 130% for a given dose of glucose.
where: • G=secretion of insulin (pmol/min. islet) in the presence of glucose alone • G+product=secretion of insulin (pmol/min. islet) in the presence of the same concentration of glucose and of the test chemical compound.

Structure (SMILES)	activity at 10 µM (INS1) [%]	also measured
CCOC(=O)c1sc2ccccc2c1OCC(=O)c1ccccc1OC [Product 3]	320	
CCOC(=O)c1sc2ccccc2c1OCC(=O)c1cccc(OC)c1 [Product 8]	252	
CCOC(=O)c1sc2ccccc2c1OCC(=O)C(C)(C)C [Product 12]	230	Insulin secretion stimulation factor, Product + G 2.8 mM ([1]; dose 10^-5 M): 93%; Insulin secretion stimulation factor, Product + G 8 mM ([1]; dose 10^-5 M): 186%; Insulin secretion stimulation factor, Product + G 2.8 mM ([1]; dose 10^-6 M): 90%; Insulin secretion stimulation factor, Product + G 8 mM ([1]; dose 10^-6 M): 189%
CCOC(=O)c1sc2ccccc2c1OCC(=O)c1ccc(F)cc1 [Product 7]	257	
CCOC(=O)c1sc2ccccc2c1OCC(=O)c1ccc2ccccc2c1 [Product 13]	240	
CCOC(=O)c1sc2ccccc2c1OCc1cccc(C#N)c1 [Product 29]	249	
CCOC(=O)c1sc2ccccc2c1OCC(=O)c1ccc(OC)cc1OC [Product 11]	258	
CCOC(=O)c1sc2ccccc2c1OC(C)C(=O)c1ccccc1 (stereo not drawn) [Product 10]	225	
